How the values were obtained:
Format in all cases: cell-based, human
HepG2 cells = HepG2 cells on flat bottom plastic wells, energy sources at a range of concentrations; details: for activity at 30 µM / activity at 100 µM / activity at 330 µM / activity at 1000 µM / activity at 3300 µM / activity at 10000 µM / activity at 15000 µM / activity at 20000 µM: Homo sapiens, HepG2, 72 h, read-out: HepG2 Cells Responses After 72 hours in Culture and a 4 hour Color Development Period
Outline: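 HepG2 cells plated overnight at 4×10^4 cells/cm^2 in glucose-, glutamine- and pyruvate-free DME with 10% HI FBS, then exposed to each energy source at 0.033 to 20 mM final for 48 to 72 h at 37° C, 5% CO2. MTS/PMS colour read at 490 nm (reference 650 nm) after 4-24 h; cell-free plate OD subtracted, data normalised to % negative control (water, no energy source).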

HL-60 cells [1] = assay: Effect of 10 mM citric acid on HL-60 energy utilization; details: for Effect of 10 mM Citric Acid on HL-60 Energy Utilization: negative control without energy sources and without citric acid
HL-60 cells [2] = assay: Effect of 1 mM chloramphenicol on HL-60 energy utilization; details: for Effect of 1 mM chloramphenicol on HL-60 Energy Utilization: negative control without chloramphenicol
Experimental: In this Example, methods for testing antimicrobial-induced modulation in growth of a cell are described. The antimicrobial selected for this Example is chloramphenicol. However, this application is not intended to be limited to the use of chloramphenicol, translation inhibitors or even antibiotics. HL-60 cells were cultured as described in Example 27.
After washing, HL-60 cells were resuspended in DME-R. An aliquot of the cell suspension was counted by trypan blue exclusion and the cell density was adjusted to 6.67×10^5[…]. Fifty μL of DME-R containing 3 mM chloramphenicol were added to each well of the appropriate number of half area, 96-well plates, followed by 25 μL of the appropriate dilution of each test energy source. Stocks of 133 mM of each test chemical were prepared in tissue culture grade water, sterile filtered, and dilutions were prepared in a master plate so that, upon dilution in a total volume of 150 μL, the final concentrations would be 0.033 to 20 mM. Negative control wells received 25 μL of tissue culture grade water. The cells were plated at a volume of 75 μL/well, giving a final cell density of 5×10^4/well. For each plate containing energy sources and cells, a second, control plate containing only energy sources was prepared. Plates were incubated at 5% CO2, 90-100% humidity, and 37° C. for 24 hours prior to addition of the MTS/MPMS colorimetric reagent (7.5 μL/well). The color formed in each well 24 hours after addition of the colorimetric reagent, was measured with a plate reader at 490 nm with a reference wavelength of 650 nm. OD values from the control plate were subtracted from the OD values obtained with cells prior to normalizing the data to % negative control.
Data shown in Table 25 are expressed as percent negative control without chloramphenicol. […] Chloramphenicol clearly has a different effect on the cells than citrate shown in Example 33.

[3] = energy source 0.03 mM with 10 mM citric acid
[4] = energy source 0.10 mM with 10 mM citric acid
[5] = energy source 0.33 mM with 10 mM citric acid
[6] = energy source 1.00 mM with 10 mM citric acid
[7] = energy source 3.3 mM with 10 mM citric acid
[8] = energy source 10 mM with 10 mM citric acid
[9] = energy source 15 mM with 10 mM citric acid
[10] = energy source 20 mM with 10 mM citric acid
[11] = energy source 0.03 mM with 1 mM chloramphenicol
[12] = energy source 0.10 mM with 1 mM chloramphenicol
[13] = energy source 0.33 mM with 1 mM chloramphenicol
[14] = energy source 1.00 mM with 1 mM chloramphenicol
[15] = energy source 3.3 mM with 1 mM chloramphenicol
[16] = energy source 10 mM with 1 mM chloramphenicol
[17] = energy source 15 mM with 1 mM chloramphenicol
[18] = energy source 20 mM with 1 mM chloramphenicol

Structure (SMILES) | Effect of 10 mM Citric Acid on HL-60 Energy Utilization (HL-60 cells [1]; [3]) | Effect of 10 mM Citric Acid on HL-60 Energy Utilization (HL-60 cells [1]; [4]) | Effect of 10 mM Citric Acid on HL-60 Energy Utilization (HL-60 cells [1]; [5]) | Effect of 10 mM Citric Acid on HL-60 Energy Utilization (HL-60 cells [1]; [6]) | Effect of 10 mM Citric Acid on HL-60 Energy Utilization (HL-60 cells [1]; [7]) | Effect of 10 mM Citric Acid on HL-60 Energy Utilization (HL-60 cells [1]; [8]) | Effect of 10 mM Citric Acid on HL-60 Energy Utilization (HL-60 cells [1]; [9]) | Effect of 10 mM Citric Acid on HL-60 Energy Utilization (HL-60 cells [1]; [10]) | Effect of 1 mM chloramphenicol on HL-60 Energy Utilization (HL-60 cells [2]; [11]) | Effect of 1 mM chloramphenicol on HL-60 Energy Utilization (HL-60 cells [2]; [12]) | Effect of 1 mM chloramphenicol on HL-60 Energy Utilization (HL-60 cells [2]; [13]) | Effect of 1 mM chloramphenicol on HL-60 Energy Utilization (HL-60 cells [2]; [14]) | Effect of 1 mM chloramphenicol on HL-60 Energy Utilization (HL-60 cells [2]; [15]) | Effect of 1 mM chloramphenicol on HL-60 Energy Utilization (HL-60 cells [2]; [16]) | Effect of 1 mM chloramphenicol on HL-60 Energy Utilization (HL-60 cells [2]; [17]) | Effect of 1 mM chloramphenicol on HL-60 Energy Utilization (HL-60 cells [2]; [18]) | activity at 30 µM (HepG2 cells; Conc. 0.03 mM) [%] | activity at 100 µM (HepG2 cells; Conc. 0.10 mM) [%] | activity at 330 µM (HepG2 cells; Conc. 0.33 mM) [%] | activity at 1000 µM (HepG2 cells; Conc. 1.00 mM) [%] | other results
O=C1O[C@H]([C@@H](O)CO)[C@@H](O)[C@@H]1O [L-gal acid g-lactone] | 16.2 % of negative control | 18.2 % of negative control | 19.7 % of negative control | 38.6 % of negative control | 188.9 % of negative control | 138.4 % of negative control | 122.4 % of negative control | 111.5 % of negative control | −2.0 % of negative control | −8.4 % of negative control | 4.3 % of negative control | −13.9 % of negative control | 3.7 % of negative control | 14.5 % of negative control | 18.0 % of negative control | 2.4 % of negative control | – | – | – | – | HepG2 Cells Responses After 72 hours in Culture and a 4 hour Color Development Period (HepG2 cells; Conc. 0.03 mM): 121.2 % of negative control; HepG2 Cells Responses After 72 hours in Culture and a 4 hour Color Development Period (HepG2 cells; Conc. 0.10 mM): 127.4 % of negative control; HepG2 Cells Responses After 72 hours in Culture and a 4 hour Color Development Period (HepG2 cells; Conc. 0.33 mM): 196.4 % of negative control; HepG2 Cells Responses After 72 hours in Culture and a 4 hour Color Development Period (HepG2 cells; Conc. 1.00 mM): 164.1 % of negative control; HepG2 Cells Responses After 72 hours in Culture and a 4 hour Color Development Period (HepG2 cells; Conc. 3.3 mM): 172.8 % of negative control; HepG2 Cells Responses After 72 hours in Culture and a 4 hour Color Development Period (HepG2 cells; Conc. 10 mM): 181.5 % of negative control; HepG2 Cells Responses After 72 hours in Culture and a 4 hour Color Development Period (HepG2 cells; Conc. 15 mM): 215.1 % of negative control; HepG2 Cells Responses After 72 hours in Culture and a 4 hour Color Development Period (HepG2 cells; Conc. 20 mM): 231.2 % of negative control
NC(=O)CC[C@H](N)C(=O)O [L-glutamine] | 15.0 % of negative control | 57.8 % of negative control | 57.1 % of negative control | 108.0 % of negative control | 135.0 % of negative control | 125.3 % of negative control | 107.3 % of negative control | 86.7 % of negative control | 33.7 % of negative control | 39.8 % of negative control | 60.6 % of negative control | 69.0 % of negative control | 85.0 % of negative control | 90.0 % of negative control | 89.0 % of negative control | 82.1 % of negative control | 103 | 114 | 205 | 218 | response in words (HepG2 cells; 0.033 to 20 mM, 72 hour culture): dose dependent response in the 72 hour culture up to 3.3 mM; activity at 3300 µM (HepG2 cells; Conc. 3.3 mM): 260%; activity at 10000 µM (HepG2 cells; Conc. 10 mM): 224%; activity at 15000 µM (HepG2 cells; Conc. 15 mM): 146%; activity at 20000 µM (HepG2 cells; Conc. 20 mM): 111%; cell activity in the presence of citric acid, in words (HL-60 cells [1]; 10 mM citric acid): able to restore cell activity to a level equal or greater than the negative control; protective effect of energy source (HL-60 cells [2]; in the presence of 1 mM chloramphenicol): limit the effect to maintenance of the cells at the level seen with no chloramphenicol and no added energy source
CC(C)[C@H](N)C(=O)O [L-valine] | 9.3 % of negative control | 13.4 % of negative control | 12.4 % of negative control | 12.7 % of negative control | 20.8 % of negative control | 32.2 % of negative control | 42.3 % of negative control | 64.5 % of negative control | 6.6 % of negative control | 4.3 % of negative control | 4.0 % of negative control | 3.2 % of negative control | 4.3 % of negative control | 5.5 % of negative control | 2.6 % of negative control | 7.5 % of negative control | 119 | 149 | 170 | 125 | activity at 3300 µM (HepG2 cells; Conc. 3.3 mM): 176%; activity at 10000 µM (HepG2 cells; Conc. 10 mM): 132%; activity at 15000 µM (HepG2 cells; Conc. 15 mM): 108%; activity at 20000 µM (HepG2 cells; Conc. 20 mM): 87.6%
Cc1cn([C@H]2C[C@H](O)[C@@H](CO)O2)c(=O)[nH]c1=O [Thymidine] | 5.2 % of negative control | 18.9 % of negative control | 12.4 % of negative control | 22.1 % of negative control | 27.9 % of negative control | 31.0 % of negative control | 20.9 % of negative control | 64.8 % of negative control | 8.4 % of negative control | 5.8 % of negative control | 6.4 % of negative control | 3.1 % of negative control | 8.8 % of negative control | 5.8 % of negative control | 6.0 % of negative control | 7.3 % of negative control | 115 | 158 | 180 | 150 | activity at 3300 µM (HepG2 cells; Conc. 3.3 mM): 135%; activity at 10000 µM (HepG2 cells; Conc. 10 mM): 114%; activity at 15000 µM (HepG2 cells; Conc. 15 mM): 101%; activity at 20000 µM (HepG2 cells; Conc. 20 mM): 134%

Source: patent US9274101B2 (BIOLOG, Inc., priority 2001, dated 2016)
